Patent US20250296971A1, “GASTRIC INHIBITORY PEPTIDE RECEPTOR LIGANDS” (priority 2021, published 2025)
*1 amine or outer side, *2 acyl side, *3 side chain or, on linkers, in order; H or OH if unused. Where a SMILES comes first, the peptide text is derived from it. Bridges are numbered along the chain shown (N, C = ends). [ ]: non-standard residue; d: D form. The star is where a group is joined. X3 = O=C(O)CN1CCN(CC(=O)O)CCN(CC(=O)NCCCOCCOCCOCCCN*)CCN(CC(=O)O)CC1; Pro(trans-4-NH2) = O=C([C@@H]1C[C@@H](N[*:3])CN1[*:1])[*:2]; DOTA = O=C(O)CN1CCN(CC(=O)O)CCN(CC(=O)*)CCN(CC(=O)O)CC1; Trp(5-Cl) = N[C@@H](Cc1c[nH]c2ccc(Cl)cc12)C(=O)O; Pyridine(2,6-diCH2) = c1cc(C[*:1])nc(C[*:2])c1; Trp(5-F) = N[C@@H](Cc1c[nH]c2ccc(F)cc12)C(=O)O; Phe(2-Cl) = N[C@@H](Cc1ccccc1Cl)C(=O)O; Hyp = O=C(O)[C@@H]1C[C@@H](O)CN1; Cha = N[C@@H](CC1CCCCC1)C(=O)O; Suc = O=C(CCC(=O)[*:2])[*:1]; Api = NC1(C(=O)O)CCNCC1; Thp = NC1(C(=O)O)CCOCC1

Biological target: T1, GIPR (CHO-K1-hGIPR cells) (Homo sapiens, UniProt P48546)
T1 construct: host or cells: CHO-K1
T1 sequence (P48546 22-466): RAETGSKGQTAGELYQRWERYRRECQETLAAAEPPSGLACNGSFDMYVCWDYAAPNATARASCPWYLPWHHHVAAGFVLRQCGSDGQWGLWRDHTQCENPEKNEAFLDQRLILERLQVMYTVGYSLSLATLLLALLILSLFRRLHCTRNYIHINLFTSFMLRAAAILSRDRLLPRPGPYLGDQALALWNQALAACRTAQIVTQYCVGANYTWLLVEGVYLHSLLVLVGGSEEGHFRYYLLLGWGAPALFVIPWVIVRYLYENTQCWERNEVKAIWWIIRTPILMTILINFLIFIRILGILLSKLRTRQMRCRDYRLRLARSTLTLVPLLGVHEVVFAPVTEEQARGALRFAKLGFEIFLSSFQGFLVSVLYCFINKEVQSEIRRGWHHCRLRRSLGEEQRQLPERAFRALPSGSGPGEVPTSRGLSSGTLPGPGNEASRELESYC
Experiment: FACS binding assay
Conditions: competition with 20 nM GIP-057, 4° C. for 1 hour, read-out: pIC50 Category (converted)
Procedure, shortened: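 Peptide binding read by flow cytometry as APC-channel median fluorescence, fitted with a four-parameter logistic to yield EC50 or IC50. Cells were hGIPR-transfected CHO-K1 in PBS with 1% FCS, detected with 1 μg/mL APC-streptavidin, 30 min on ice.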

| Compound | IC50 [nM] |
| --- | --- |
| CC[C@H](C)[C@@H]1NC(=O)[C@H](CC(C)C)NC(=O)C2(CCOCC2)NC(=O)[C@@H](NC(=O)[C@@H](CC(C)C)NC(=O)[C@H](CCC(=O)O)NC(=O)[C@@H]2C[C@@H](O)CN2C(=O)[C@H](Cc2c[nH]c3ccc(Cl)cc23)NC(=O)[C@H](Cc2c[nH]c3ccccc23)NC(=O)[C@@H](CC(=O)O)NC(C)=O)CSCc2cccc(n2)CSC[C@@H](C(N)=O)NC1=O [GIP-381, Ac-asp-Trp-5Clw-Hyp-Glu-leu-[Cys(2Lut)-Thp-Leu-Ile-Cys]-NH2] (Ac-[dD]W[Trp(5-Cl)][Hyp]E[dL]C[Thp]LIC-NH2; linker 7-11 via Pyridine(2,6-diCH2)) | < 10 |
| CC[C@H](C)[C@@H]1NC(=O)[C@H](CC(C)C)NC(=O)C2(CCOCC2)NC(=O)[C@@H](NC(=O)[C@@H](CC(C)C)NC(=O)[C@H](CCC(=O)O)NC(=O)[C@@H]2C[C@@H](O)CN2C(=O)[C@H](Cc2c[nH]c3ccc(Cl)cc23)NC(=O)[C@H](Cc2c[nH]c3ccc(F)cc23)NC(=O)[C@H](CC(=O)O)NC(C)=O)CSCc2cccc(n2)CSC[C@@H](C(N)=O)NC1=O [GIP-382, Ac-Asp-5Fw-5Clw-Hyp-Glu-leu-[Cys(2Lut)-Thp-Leu-Ile-Cys]-NH2] (Ac-D[Trp(5-F)][Trp(5-Cl)][Hyp]E[dL]C[Thp]LIC-NH2; linker 7-11 via Pyridine(2,6-diCH2)) | < 10 |
| CC[C@H](C)[C@@H]1NC(=O)[C@H](CC2CCCCC2)NC(=O)C2(CCOCC2)NC(=O)[C@@H](NC(=O)[C@@H](CC(C)C)NC(=O)[C@H](CCC(=O)O)NC(=O)[C@@H]2C[C@@H](O)CN2C(=O)[C@H](Cc2c[nH]c3ccc(Cl)cc23)NC(=O)[C@H](Cc2c[nH]c3ccccc23)NC(=O)[C@H](CC(=O)O)NC(C)=O)CSCc2cccc(n2)CSC[C@@H](C(N)=O)NC1=O [GIP-383, Ac-Asp-Trp-5Clw-Hyp-Glu-leu-[Cys(2Lut)-Thp-Cha-Ile-Cys]-NH2] (Ac-DW[Trp(5-Cl)][Hyp]E[dL]C[Thp][Cha]IC-NH2; linker 7-11 via Pyridine(2,6-diCH2)) | < 10 |
| CC[C@H](C)[C@@H]1NC(=O)[C@H](CC(C)C)NC(=O)C2(CCOCC2)NC(=O)[C@@H](NC(=O)[C@@H](CC(C)C)NC(=O)[C@H](CO)NC(=O)[C@@H]2C[C@@H](O)CN2C(=O)[C@H](Cc2c[nH]c3ccc(Cl)cc23)NC(=O)[C@H](Cc2c[nH]c3ccccc23)NC(=O)[C@H](CC(=O)O)NC(C)=O)CSCc2cccc(n2)CSC[C@@H](C(N)=O)NC1=O [GIP-384, Ac-Asp-Trp-5Clw-Hyp-Ser-leu-[Cys(2Lut)-Thp-Leu-Ile-Cys]-NH2] (Ac-DW[Trp(5-Cl)][Hyp]S[dL]C[Thp]LIC-NH2; linker 7-11 via Pyridine(2,6-diCH2)) | < 10 |
| CC[C@H](C)[C@@H]1NC(=O)[C@H](CC(C)C)NC(=O)C2(CCOCC2)NC(=O)[C@@H](NC(=O)[C@@H](CC(C)C)NC(=O)[C@@H](NC(=O)[C@@H]2C[C@@H](O)CN2C(=O)[C@H](Cc2c[nH]c3ccc(Cl)cc23)NC(=O)[C@H](Cc2c[nH]c3ccccc23)NC(=O)[C@H](CC(=O)O)NC(C)=O)C(C)C)CSCc2cccc(n2)CSC[C@@H](C(N)=O)NC1=O [GIP-385, Ac-Asp-Trp-5Clw-Hyp-Val-leu-[Cys(2Lut)-Thp-Leu-Ile-Cys]-NH2] (Ac-DW[Trp(5-Cl)][Hyp]V[dL]C[Thp]LIC-NH2; linker 7-11 via Pyridine(2,6-diCH2)) | < 10 |
| CC[C@H](C)[C@@H]1NC(=O)[C@H](CC(C)C)NC(=O)C2(CCOCC2)NC(=O)[C@@H](NC(=O)[C@@H](CC(C)C)NC(=O)[C@H](C)NC(=O)[C@@H]2C[C@@H](O)CN2C(=O)[C@H](Cc2c[nH]c3ccc(Cl)cc23)NC(=O)[C@H](Cc2c[nH]c3ccccc23)NC(=O)[C@H](CC(=O)O)NC(C)=O)CSCc2cccc(n2)CSC[C@@H](C(N)=O)NC1=O [GIP-386, Ac-Asp-Trp-5Clw-Hyp-Ala-leu-[Cys(2Lut)-Thp-Leu-Ile-Cys]-NH2] (Ac-DW[Trp(5-Cl)][Hyp]A[dL]C[Thp]LIC-NH2; linker 7-11 via Pyridine(2,6-diCH2)) | < 10 |
| CC[C@H](C)[C@@H]1NC(=O)[C@H](CC(C)C)NC(=O)C2(CCOCC2)NC(=O)[C@@H](NC(=O)[C@@H](CC(C)C)NC(=O)[C@H](CCC(=O)O)NC(=O)[C@@H]2C[C@@H](O)CN2C(=O)[C@H](Cc2c[nH]c3ccc(Cl)cc23)NC(=O)[C@H](Cc2ccccc2Cl)NC(=O)[C@H](CC(=O)O)NC(=O)CCC(=O)NCCCOCCOCCOCCCNC(=O)CN2CCN(CC(=O)O)CCN(CC(=O)O)CCN(CC(=O)O)CC2)CSCc2cccc(n2)CSC[C@@H](C(N)=O)NC1=O [GIP-387, DOTA-Ttds-Asp-Ocf-5Clw-Hyp-Glu-leu-[Cys(2Lut)-Thp-Leu-Ile-Cys]-NH2] ({X3-Suc}-D[Phe(2-Cl)][Trp(5-Cl)][Hyp]E[dL]C[Thp]LIC-NH2; linker 7-11 via Pyridine(2,6-diCH2)) | 10 to 79.4 |
| CC(C)C[C@@H]1NC(=O)C2(CCOCC2)NC(=O)[C@@H](NC(=O)[C@@H](CC(C)C)NC(=O)[C@H](CCC(=O)O)NC(=O)[C@@H]2C[C@@H](O)CN2C(=O)[C@H](Cc2c[nH]c3ccc(Cl)cc23)NC(=O)[C@H](Cc2c[nH]c3ccccc23)NC(=O)[C@H](CC(=O)O)NC(=O)CCC(=O)NCCCOCCOCCOCCCNC(=O)CN2CCN(CC(=O)O)CCN(CC(=O)O)CCN(CC(=O)O)CC2)CSCc2cccc(n2)CSC[C@@H](C(N)=O)NC(=O)[C@H](Cc2ccccc2)NC1=O [GIP-388, DOTA-Ttds-Asp-Trp-5Clw-Hyp-Glu-leu-[Cys(2Lut)-Thp-Leu-Phe-Cys]-NH2] ({X3-Suc}-DW[Trp(5-Cl)][Hyp]E[dL]C[Thp]LFC-NH2; linker 7-11 via Pyridine(2,6-diCH2)) | 10 to 79.4 |
| CC(=O)N[C@@H](CC(=O)O)C(=O)N[C@@H](Cc1c[nH]c2ccccc12)C(=O)N[C@@H](Cc1c[nH]c2ccc(Cl)cc12)C(=O)N1C[C@H](O)C[C@H]1C(=O)N[C@@H](CCC(=O)O)C(=O)N[C@H](CC(C)C)C(=O)N[C@H]1CSCc2cccc(n2)CSC[C@@H](C(=O)N[C@H](CCCCNC(=O)CN2CCN(CC(=O)O)CCN(CC(=O)O)CCN(CC(=O)O)CC2)C(N)=O)NC(=O)[C@H](Cc2ccccc2)NC(=O)[C@H](CC(C)C)NC(=O)C2(CCOCC2)NC1=O [GIP-389, Ac-Asp-Trp-5Clw-Hyp-Glu-leu-[Cys(2Lut)-Thp-Leu-Phe-Cys]-lys (DOTA)-NH2] (Ac-DW[Trp(5-Cl)][Hyp]E[dL]C[Thp]LFC[dK](DOTA)-NH2; linker 7-11 via Pyridine(2,6-diCH2)) | 10 to 79.4 |
| CC[C@H](C)[C@@H]1NC(=O)[C@H](CC(C)C)NC(=O)C2(CCOCC2)NC(=O)[C@@H](NC(=O)[C@@H](CC(C)C)NC(=O)[C@H](CCC(=O)O)NC(=O)[C@@H]2C[C@@H](NC(=O)CN3CCN(CC(=O)O)CCN(CC(=O)O)CCN(CC(=O)O)CC3)CN2C(=O)[C@H](Cc2c[nH]c3ccc(Cl)cc23)NC(=O)[C@H](Cc2ccccc2Cl)NC(=O)[C@H](CC(=O)O)NC(C)=O)CSCc2cccc(n2)CSC[C@@H](C(N)=O)NC1=O [GIP-390, Ac-Asp-Ocf-5Clw-Tap (DOTA)-Glu-leu-[Cys(2Lut)-Thp-Leu-Ile-Cys]-NH2] (Ac-D[Phe(2-Cl)][Trp(5-Cl)][Pro(trans-4-NH2)](DOTA)E[dL]C[Thp]LIC-NH2; linker 7-11 via Pyridine(2,6-diCH2)) | 10 to 79.4 |
| CC(=O)N[C@@H](CC(=O)O)C(=O)N[C@@H](Cc1c[nH]c2ccccc12)C(=O)N[C@@H](Cc1c[nH]c2ccc(Cl)cc12)C(=O)N1C[C@H](NC(=O)CN2CCN(CC(=O)O)CCN(CC(=O)O)CCN(CC(=O)O)CC2)C[C@H]1C(=O)N[C@@H](CCC(=O)O)C(=O)N[C@H](CC(C)C)C(=O)N[C@H]1CSCc2cccc(n2)CSC[C@@H](C(N)=O)NC(=O)[C@H](Cc2ccccc2)NC(=O)[C@H](CC(C)C)NC(=O)C2(CCOCC2)NC1=O [GIP-391, Ac-Asp-Trp-5Clw-Tap (DOTA)-Glu-leu-[Cys(2Lut)-Thp-Leu-Phe-Cys]-NH2] (Ac-DW[Trp(5-Cl)][Pro(trans-4-NH2)](DOTA)E[dL]C[Thp]LFC-NH2; linker 7-11 via Pyridine(2,6-diCH2)) | 10 to 79.4 |
| CC[C@H](C)[C@@H]1NC(=O)[C@H](CC(C)C)NC(=O)C2(CCN(C(=O)CN3CCN(CC(=O)O)CCN(CC(=O)O)CCN(CC(=O)O)CC3)CC2)NC(=O)[C@@H](NC(=O)[C@@H](CC(C)C)NC(=O)[C@H](CCC(=O)O)NC(=O)[C@@H]2C[C@@H](O)CN2C(=O)[C@H](Cc2c[nH]c3ccc(Cl)cc23)NC(=O)[C@H](Cc2ccccc2Cl)NC(=O)[C@H](CC(=O)O)NC(C)=O)CSCc2cccc(n2)CSC[C@@H](C(N)=O)NC1=O [GIP-392, Ac-Asp-Ocf-5Clw-Hyp-Glu-leu-[Cys(2Lut)-Apc(DOTA)-Leu-Ile-Cys]-NH2] (Ac-D[Phe(2-Cl)][Trp(5-Cl)][Hyp]E[dL]C[Api](DOTA)LIC-NH2; linker 7-11 via Pyridine(2,6-diCH2)) | 10 to 79.4 |
| CC(=O)N[C@@H](CC(=O)O)C(=O)N[C@@H](Cc1c[nH]c2ccccc12)C(=O)N[C@@H](Cc1c[nH]c2ccc(Cl)cc12)C(=O)N1C[C@H](O)C[C@H]1C(=O)N[C@@H](CCC(=O)O)C(=O)N[C@H](CC(C)C)C(=O)N[C@H]1CSCc2cccc(n2)CSC[C@@H](C(N)=O)NC(=O)[C@H](Cc2ccccc2)NC(=O)[C@H](CC(C)C)NC(=O)C2(CCN(C(=O)CN3CCN(CC(=O)O)CCN(CC(=O)O)CCN(CC(=O)O)CC3)CC2)NC1=O [GIP-393, Ac-Asp-Trp-5Clw-Hyp-Glu-leu-[Cys(2Lut)-Apc(DOTA)-Leu-Phe-Cys]-NH2] (Ac-DW[Trp(5-Cl)][Hyp]E[dL]C[Api](DOTA)LFC-NH2; linker 7-11 via Pyridine(2,6-diCH2)) | 10 to 79.4 |
